Test system: wheat powdery mildew fungus Erysiphe graminis
Test: not given
Conditions: 200 ppm, foliar application to wheat plants, 10 mL per pot, 7 days after inoculation

Compound	control effect (control rate, lesion area) activity level
CC[S+]([O-])c1cc(C(F)(F)F)ccc1C(=O)N(C)c1ccc(Cl)c(C(F)(F)F)c1 (centres unmarked) [Compound 3-31]	D or higher
CCSc1cc(C(F)(F)F)ccc1C(=O)Nc1ccc(C(C(F)(F)F)C(F)(F)F)cc1 [Compound 4-5]	D or higher
CC[S+]([O-])c1cc(SC(F)(F)F)ccc1C(=O)Nc1ccc(C(F)(C(F)(F)F)C(F)(F)F)cc1Cl (centres unmarked) [Compound 6-23]	D or higher
CCS(=O)(=O)c1cc(C(F)(F)F)ccc1C(=O)N(C)c1ccc(C(F)(C(F)(F)F)C(F)(F)F)cc1 [Compound 3-9]	D or higher
CCS(=O)(=O)c1cc(SC(F)(F)F)ccc1C(=O)Nc1ccc(C(F)(C(F)(F)F)C(F)(F)F)cc1Cl [Compound 6-24]	D or higher
CCSc1cc(C(F)(F)F)ccc1C(=O)Nc1ccc(C(F)(C(F)F)C(F)(F)F)cc1Cl (centres unmarked) [Compound 5-51]	D or higher
CCS(=O)(=O)c1cc(C(F)(F)F)ccc1C(=O)Nc1ccc(C(F)(C(F)(F)F)C(F)(F)Br)cc1Cl (centres unmarked) [Compound 5-59]	D or higher
CC[S+]([O-])c1cc(C(F)(F)F)ccc1C(=O)N(C)c1ccc(I)cc1F (centres unmarked) [Compound 3-34]	D or higher
CCS(=O)(=O)c1cc(C(F)(F)F)ccc1C(=O)N(C)c1ccc(Cl)c(C(F)(F)F)c1 [Compound 3-32]	D or higher
CC[S+]([O-])c1cc(C(F)(F)F)ccc1C(=O)N(C)c1ccc(OC(F)(F)F)cc1 (centres unmarked) [Compound 3-13]	D or higher
CCS(=O)(=O)c1cc(C(F)(F)F)cnc1C(=O)N(c1ccc(C(F)(F)F)cn1)C1CC1 [Compound 1-15]	D or higher
CCSc1cc(SC(F)(F)F)ccc1C(=O)Nc1ccc(C(F)(C(F)(F)F)C(F)(F)F)cc1Cl [Compound 6-22]	D or higher
CCS(=O)(=O)c1cc(C(F)(F)F)ccc1C(=O)Nc1ccc(F)c(C(F)(F)F)c1F [Compound 4-22]	D or higher
CCS(=O)(=O)c1cc(C(F)(F)F)ccc1C(=O)Nc1ccc(C(F)(F)C(F)(F)C(F)(F)C(F)(F)F)cc1C [Compound 4-16]	D or higher
CC[S+]([O-])c1cc(C(F)(F)F)ccc1C(=O)N(C)c1ccc(SC(F)(F)F)cc1 (centres unmarked) [Compound 3-16]	D or higher
CCS(=O)(=O)c1cc(C(F)(F)F)ccc1C(=O)N(C)c1ccc(C(F)(C(F)(F)F)C(F)(F)F)cn1 [Compound 1-21]	D or higher
CCS(=O)(=O)c1cc(C(F)(F)F)ccc1C(=O)Nc1ccc(OC(F)(F)C(F)F)cc1C [Compound 5-71]	D or higher

Compound	control effect (control rate, lesion area) activity level
CCS(=O)(=O)c1cc(C(F)(F)F)ccc1C(=O)N(C)c1ccc(C(F)(F)C(F)(F)F)c(C)c1C [Compound 3-50]	D or higher
CCS(=O)(=O)c1cc(C(F)(F)F)ccc1C(=O)N(C)c1ccc(C(F)(F)C(F)(F)F)c(C)c1 [Compound 3-47]	D or higher
CCS(=O)(=O)c1cc(OC)ccc1C(=O)Nc1ccc(C(F)(C(F)(F)F)C(F)(F)F)cc1C [Compound 6-12]	D or higher
CC[S+]([O-])c1cc(C(F)(F)F)ccc1C(=O)Nc1ccc([Si](C)(C)C)cc1C (centres unmarked) [Compound 5-64]	D or higher
CC[S+]([O-])c1cc(C(F)(F)F)ccc1C(=O)Nc1ccc(C(F)(C(F)(F)F)C(F)(F)F)cc1Cl (centres unmarked) [Compound 4-27]	D or higher
CCSc1cc(C(F)(F)F)ccc1C(=O)N(C)c1ccc(C(F)(C(F)(F)F)C(F)(F)F)nc1 [Compound 1-22]	D or higher
CCSc1cc(C(F)(F)F)ccc1C(=O)N(C)c1ccc(OC(F)(F)F)cc1 [Compound 3-12]	D or higher
CC[S+]([O-])c1cc(C(F)(F)F)ccc1C(=O)Nc1ccc(OC(F)(F)F)cc1Br (centres unmarked) [Compound 5-73]	D or higher
CC[S+]([O-])c1cc(C(F)(F)F)ccc1C(=O)Nc1ccc(F)c(C(F)(F)F)c1F (centres unmarked) [Compound 4-21]	D or higher
CC[S+]([O-])c1cc(C(F)(F)F)ccc1C(=O)N(C)c1ccc(Cl)c(Cl)c1 (centres unmarked) [Compound 3-28]	D or higher
CC[S+]([O-])c1cc(C(F)(F)F)ccc1C(=O)Nc1ccc(OC(F)(F)C(F)F)cc1C (centres unmarked) [Compound 5-70]	D or higher
CCS(=O)(=O)c1cc(C(F)(F)F)ccc1C(=O)N(C)c1ccc(SC(F)(F)F)cc1 [Compound 3-17]	D or higher
CC[S+]([O-])c1cc(C(F)(F)F)cnc1C(=O)N(c1ccc(C(F)(F)F)cn1)C1CC1 (centres unmarked) [Compound 1-14]	D or higher
CC[S+]([O-])c1cc(C(F)(F)F)ccc1C(=O)N(C)c1ccc(C(C)C)cc1 (centres unmarked) [Compound 3-19]	D or higher
CCc1cc(OC(F)(F)F)ccc1NC(=O)c1ccc(C(F)(F)F)cc1S(=O)(=O)CC [Compound 5-77]	D or higher
CCSc1cc(C(F)(F)F)cnc1C(=O)N(CC)c1ccc(C(F)(F)F)cn1 [Compound 1-10]	D or higher

Test system: Tetranychus urticae
Test: Acaricidal test on Tetranychus urticae
Format: in vivo
Conditions: 500 ppm, kidney bean leaf disks dipped about 30 seconds, female adults, two days later, 25° C.
Text: Acaricidal Test on Tetranychus urticae

Compound	acaricidal effect (corrected mortality rate) activity level
CCS(=O)(=O)c1cc(C(F)(F)F)ccc1C(=O)N(c1ccc(C(F)(F)F)cn1)C1CC1 [Compound 1-9]	D or higher
CCS(=O)(=O)c1cc(C(F)(F)F)ccc1C(=O)N(C)c1ccc(C(F)(F)C(F)(F)F)cn1 [Compound 1-26]	D or higher
CCSc1cc(C(F)(F)F)ccc1C(=O)N(C)c1ccc(C(OC)(C(F)(F)F)C(F)(F)F)cc1 [Compound 3-4]	D or higher

Test system: Meloidogyne incognita
Test: Nematicidal test on Meloidogyne incognita
Format: in vivo
Conditions: 500 ppm, 1 mL soil drench, potted melon seedlings, 8 days after inoculation
Procedure: Nematicidal Test on Meloidogyne incognita
Agrochemical formulations containing different amide compounds represented by the general formula (I) of the present invention or salts thereof as an active ingredient were separately diluted to a concentration of 500 ppm. The diluted agrochemical formulations (1 mL) were drenched into the soil around the foot of potted melon seedlings. At one day after the agrochemical treatment, an aqueous suspension of Meloidogyne incognita (about 500 worms/mL) was drenched into the soil for inoculation both in a treatment plot and in a non-treatment plot. The inoculated pots were kept in a greenhouse at 25° C. At 8 days after the inoculation, the root of each seedling was washed with water, the number of root nodules was counted, and the nematicidal effect was evaluated according to the following criteria.
A: the percentage of the number of root nodules relative to the non-treatment plot is 0%.
B: the percentage of the number of root nodules relative to the non-treatment plot is 1 to 10%.
C: the percentage of the number of root nodules relative to the non-treatment plot is 11 to 20%.
D: the percentage of the number of root nodules relative to the non-treatment plot is 21 to 50%.

Compound	nematicidal effect (number of root nodules relative to non-treatment plot) activity level
CCS(=O)(=O)c1cc(C(F)(F)F)ccc1C(=O)N(c1ccc(C(F)(F)F)cn1)C1CC1 [Compound 1-9]	D or higher
CCSc1cc(C(F)(F)F)cnc1C(=O)N(c1ccc(C(F)(F)F)cn1)C1CC1 [Compound 1-13]	D or higher
CCS(=O)(=O)c1cc(C(F)(F)F)ccc1C(=O)N(C)c1ccc(C(F)(F)C(F)(F)F)cn1 [Compound 1-26]	D or higher
CCSc1cc(C(F)(F)F)ccc1C(=O)Nc1ccc(C(C(F)(F)F)C(F)(F)F)cc1 [Compound 4-5]	D or higher
CCS(=O)(=O)c1cc(C(F)(F)F)ccc1C(=O)N(C)c1ccc(C(F)(C(F)(F)F)C(F)(F)F)cc1 [Compound 3-9]	D or higher
CC[S+]([O-])c1cc(C(F)(F)F)ccc1C(=O)N(C)c1ccc(Cl)cc1 (centres unmarked) [Compound 3-22]	D or higher
CCN(C(=O)c1ncc(C(F)(F)F)cc1S(=O)(=O)CC)c1ccc(C(F)(F)F)cn1 [Compound 1-12]	D or higher
CCS(=O)(=O)c1cc(C(F)(F)C(F)(F)F)ccc1C(=O)N(C)c1ccc(C(F)(F)F)cn1 [Compound 1-44]	D or higher
CCSc1cc(C(F)(F)F)ccc1C(=O)N(C)c1ccc(C(F)(F)F)nn1 [Compound 2-1]	D or higher
CCSc1cc(C(F)(F)F)ccc1C(=O)N(c1ccc(C(F)(F)F)cn1)C1CC1 [Compound 1-7]	D or higher
CCS(=O)(=O)c1cc(C(F)(F)F)ccc1C(=O)N(C)c1ccc(C(F)(F)F)nn1 [Compound 2-3]	D or higher
CCS(=O)(=O)c1cc(C(F)(F)F)ccc1C(=O)N(C)c1ccc(C(F)(C(F)(F)F)C(F)(F)F)cn1 [Compound 1-21]	D or higher
CCSc1cc(C(F)(F)F)ccc1C(=O)N(C)c1ccc(C(F)(C(F)(F)F)C(F)(F)F)cc1 [Compound 3-7]	D or higher
CCS(=O)(=O)c1cc(C(F)(F)F)ccc1C(=O)N(C)c1ccc(C(F)(C(F)(F)F)C(F)(F)F)nc1 [Compound 1-24]	D or higher
CCSc1cc(C(F)(F)F)ccc1C(=O)N(C)c1ccc(OC(F)(F)F)cc1 [Compound 3-12]	D or higher
CCSc1cc(C(F)(F)F)cnc1C(=O)N(CC)c1ccc(C(F)(F)F)cn1 [Compound 1-10]	D or higher
CC[S+]([O-])c1cc(C(F)(F)F)ccc1C(=O)N(C)c1ccc(C(F)(C(F)(F)F)C(F)(F)F)cc1 (centres unmarked) [Compound 3-8]	D or higher

— US10123537B2, “Amide compound or salt thereof, agricultural and horticultural insecticide and microbicide comprising the compound, and method for using the insecticide and microbicide” (NIHON NOHYAKU CO., LTD., priority 2013, dated 2018)
